Experimental data taken from PubChem BioAssay AID2060492 (Molecular Pharmacology Branch, DTP, NCI, 2025).

Test system: 695427-040-R-J1-PDC complex spheroids, viability percent T/C
Assay: Anticancer human tumor 695427-040-R-J1-PDC patient-derived colon adenocarcinoma cell line growth inhibition [GQUAD]
Settings: for IC50: curve of first compound; for viability, T/C: stronger effect = lower value
Outline: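 Tumor cells were grown as complex spheroids with HUVEC endothelial cells and mesenchymal stem cells as stroma. G-quadruplex stabilizers were combined with targeted agents over half-log dilutions from near the clinical Cmax, or from 10 microM.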

[1] = second compound 0.0316 µM, first compound 0.0316 µM
[2] = second compound 0.0316 µM, first compound 0.1 µM
[3] = second compound 0.0316 µM, first compound 0.316 µM
[4] = second compound 0.0316 µM, first compound 1 µM
[5] = second compound 0.0316 µM, first compound 3.16 µM
[6] = second compound 0.0316 µM, first compound 10 µM
[7] = second compound 0.1 µM, first compound 0.0316 µM
[8] = second compound 0.1 µM, first compound 0.1 µM
[9] = second compound 0.1 µM, first compound 0.316 µM
[10] = second compound 0.1 µM, first compound 1 µM
[11] = second compound 0.1 µM, first compound 3.16 µM
[12] = second compound 0.1 µM, first compound 10 µM
[13] = second compound 0.316 µM, first compound 0.0316 µM
[14] = second compound 0.316 µM, first compound 0.1 µM
[15] = second compound 0.316 µM, first compound 0.316 µM
[16] = second compound 0.316 µM, first compound 1 µM
[17] = second compound 0.316 µM, first compound 3.16 µM
[18] = second compound 0.316 µM, first compound 10 µM
[19] = second compound 1 µM, first compound 0.0316 µM
[20] = second compound 1 µM, first compound 0.1 µM
[21] = second compound 1 µM, first compound 0.316 µM
[22] = second compound 1 µM, first compound 1 µM
[23] = second compound 1 µM, first compound 3.16 µM
[24] = second compound 1 µM, first compound 10 µM
[25] = second compound 3.16 µM, first compound 0.0316 µM
[26] = second compound 3.16 µM, first compound 0.1 µM
[27] = second compound 3.16 µM, first compound 0.316 µM
[28] = second compound 3.16 µM, first compound 1 µM
[29] = second compound 3.16 µM, first compound 3.16 µM
[30] = second compound 3.16 µM, first compound 10 µM
[31] = second compound 10 µM, first compound 0.0316 µM
[32] = second compound 10 µM, first compound 0.1 µM
[33] = second compound 10 µM, first compound 0.316 µM
[34] = second compound 10 µM, first compound 1 µM
[35] = second compound 10 µM, first compound 3.16 µM
[36] = second compound 10 µM, first compound 10 µM
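Further: spheroids exposed to compounds for seven days before readout.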

C#Cc1c(F)ccc2cc(O)cc(-c3ncc4c(N5CC6CCC(C5)N6)nc(OCC56CCCN5CC(F)C6)nc4c3F)c12 (centres undefined) + Cc1cnc(CNC(=O)c2c(=O)c3ccc(N4CCCN(C)CC4)nc3n3c2sc2ccccc23)cn1
IC50 (second compound 0.0316 µM): > 10 µM
IC50 (second compound 0.1 µM): > 10 µM
IC50 (second compound 0.316 µM): > 10 µM
IC50 (second compound 1 µM): > 10 µM
IC50 (second compound 3.16 µM): < 0.0316 µM
IC50 (second compound 10 µM): < 0.0316 µM
viability, T/C [1]: 103%
viability, T/C [2]: 94.4%
viability, T/C [3]: 87.1%
viability, T/C [4]: 73.2%
viability, T/C [5]: 76.9%
viability, T/C [6]: 65.4%
viability, T/C [7]: 110%
viability, T/C [8]: 69.8%
viability, T/C [9]: 85%
viability, T/C [10]: 71.5%
viability, T/C [11]: 71.4%
viability, T/C [12]: 58.7%
viability, T/C [13]: 82.5%
viability, T/C [14]: 78.9%
viability, T/C [15]: 51.1%
viability, T/C [16]: 65.7%
viability, T/C [17]: 63.2%
viability, T/C [18]: 52.2%
viability, T/C [19]: 79.8%
viability, T/C [20]: 52.5%
viability, T/C [21]: 61.8%
viability, T/C [22]: 60.4%
viability, T/C [23]: 65%
viability, T/C [24]: 46.6%
viability, T/C [25]: 37.6%
viability, T/C [26]: 51.7%
viability, T/C [27]: 47.2%
viability, T/C [28]: 33.4%
viability, T/C [29]: 47%
viability, T/C [30]: 30.4%
viability, T/C [31]: 22.1%
viability, T/C [32]: 29.2%
viability, T/C [33]: 41.9%
viability, T/C [34]: 31.3%
viability, T/C [35]: 29.9%
viability, T/C [36]: 0.83%

CC(=O)O[C@H]1C(=O)[C@@]2(C)[C@H]([C@H](OC(=O)c3ccccc3)[C@]3(O)C[C@H](OC(=O)[C@H](O)[C@@H](NC(=O)c4ccccc4)c4ccccc4)C(C)=C1C3(C)C)[C@]1(OC(C)=O)CO[C@@H]1C[C@@H]2O + Cc1cnc(CNC(=O)c2c(=O)c3ccc(N4CCCN(C)CC4)nc3n3c2sc2ccccc23)cn1
IC50 (second compound 0.0316 µM): > 10 µM
IC50 (second compound 0.1 µM): > 10 µM
IC50 (second compound 0.316 µM): > 10 µM
IC50 (second compound 1 µM): > 10 µM
IC50 (second compound 3.16 µM): < 0.0316 µM
IC50 (second compound 10 µM): < 0.0316 µM
viability, T/C [1]: 102%
viability, T/C [2]: 84.2%
viability, T/C [3]: 85.5%
viability, T/C [4]: 63.7%
viability, T/C [5]: 65%
viability, T/C [6]: 54.4%
viability, T/C [7]: 90.5%
viability, T/C [8]: 82.6%
viability, T/C [9]: 91.5%
viability, T/C [10]: 57.8%
viability, T/C [11]: 71.8%
viability, T/C [12]: 66.2%
viability, T/C [13]: 80.4%
viability, T/C [14]: 76.3%
viability, T/C [15]: 62.3%
viability, T/C [16]: 62%
viability, T/C [17]: 65.7%
viability, T/C [18]: 71.3%
viability, T/C [19]: 65.3%
viability, T/C [20]: 67.5%
viability, T/C [21]: 65.9%
viability, T/C [22]: 51.3%
viability, T/C [23]: 76.5%
viability, T/C [24]: 59.5%
viability, T/C [25]: 40.7%
viability, T/C [26]: 43.6%
viability, T/C [27]: 56.9%
viability, T/C [28]: 44.3%
viability, T/C [29]: 60.4%
viability, T/C [30]: 58%
viability, T/C [31]: 30.6%
viability, T/C [32]: 30%
viability, T/C [33]: 43.5%
viability, T/C [34]: 43.6%
viability, T/C [35]: 44.2%
viability, T/C [36]: 24.8%
